According to patent US11517556B2, “Composition for BKCa channel activation” (GWANGJU INSTITUTE OF SCIENCE AND TECHNOLOGY, priority 2016, dated 2022):

Tests used:
[1] = tested on: spontaneous hypertensive rats (SHR); assay: Voiding behavior of spontaneous hypertensive rats (SHR); type: in vivo, rat
Procedure: (§1) The voiding frequency was monitored for 3 hours. FIG. 9B represents a total number of voidings. Each symbol or bar represents average±SEM of 5 (WKY) or 7 (SHR) animals (*** P<0.001).
(§2) The cumulative voiding frequency is shown in FIG. 9A for WKY and SHR orally administered with kurarinone. The administration of kurarinone may allow distinct differences in voiding frequency to be evident between WKY and SHR. […] In the WKY control rat, the decrease of the voiding frequency was not observed.

[2] = molecular target: T1, rat BKCa channel α-subunit (rSlo1) (Rattus norvegicus, UniProt Q62976); assay: Single-channel patch-clamp recording, outside-out patches of Xenopus oocytes; type: cell-based; settings: 5 μM
T1 construct: expressed in transfected cells; host or cells: Xenopus laevis oocytes injected with cRNA (vector pNBC1.0)
T1 sequence (Q62976 whole entry): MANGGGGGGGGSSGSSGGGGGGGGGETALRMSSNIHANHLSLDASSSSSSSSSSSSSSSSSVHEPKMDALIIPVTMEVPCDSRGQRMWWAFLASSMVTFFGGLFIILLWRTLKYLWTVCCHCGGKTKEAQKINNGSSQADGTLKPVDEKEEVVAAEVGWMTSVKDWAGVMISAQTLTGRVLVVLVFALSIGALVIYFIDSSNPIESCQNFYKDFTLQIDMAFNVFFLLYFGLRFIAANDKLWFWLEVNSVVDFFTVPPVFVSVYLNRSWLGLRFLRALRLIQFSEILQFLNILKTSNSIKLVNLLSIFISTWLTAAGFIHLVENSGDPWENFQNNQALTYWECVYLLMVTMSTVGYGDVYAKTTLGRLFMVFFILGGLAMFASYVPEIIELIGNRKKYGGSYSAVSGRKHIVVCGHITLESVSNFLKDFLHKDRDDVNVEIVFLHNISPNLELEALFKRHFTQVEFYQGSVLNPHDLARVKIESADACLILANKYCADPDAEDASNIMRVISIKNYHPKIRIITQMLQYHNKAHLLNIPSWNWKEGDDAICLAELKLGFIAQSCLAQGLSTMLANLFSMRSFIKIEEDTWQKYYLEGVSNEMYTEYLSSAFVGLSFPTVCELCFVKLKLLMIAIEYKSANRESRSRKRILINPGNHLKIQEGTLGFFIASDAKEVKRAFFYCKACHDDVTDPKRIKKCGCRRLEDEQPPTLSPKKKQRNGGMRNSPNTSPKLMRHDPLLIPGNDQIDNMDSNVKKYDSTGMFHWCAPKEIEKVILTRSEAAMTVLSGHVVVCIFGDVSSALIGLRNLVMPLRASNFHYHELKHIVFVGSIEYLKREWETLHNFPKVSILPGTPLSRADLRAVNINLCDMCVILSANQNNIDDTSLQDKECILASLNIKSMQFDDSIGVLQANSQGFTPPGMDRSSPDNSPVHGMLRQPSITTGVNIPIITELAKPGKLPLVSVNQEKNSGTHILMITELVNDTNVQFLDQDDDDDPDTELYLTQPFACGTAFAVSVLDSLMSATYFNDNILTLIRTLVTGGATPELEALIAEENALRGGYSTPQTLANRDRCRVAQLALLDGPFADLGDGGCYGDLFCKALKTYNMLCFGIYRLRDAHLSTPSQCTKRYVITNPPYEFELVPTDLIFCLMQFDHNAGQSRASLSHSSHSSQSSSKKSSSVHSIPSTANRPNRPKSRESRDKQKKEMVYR
Description: (§3) Xenopus laevis oocytes heterologously expressing a BKCa channel α-subunit (Slo1) were used for electrophysiological recording. Subcloning and functional expression of the rat BKCa channel α-subunit using the oocyte expression vector pNBC1.0 has been reported (Ha et al., 2000). Sequence information of Slo1 used in the present disclosure is published in GenBank as expression number AF135265. Plasmid DNA was linearized using Notl restriction enzyme, and complementary RNA (cRNA) was synthesized using T7 RNA polymerase in the presence of nucleoside triphosphate and cap analog m7G(5′)ppp(5′)G from a linear form of DNA using mMessage Machine (Ambion).
Oocytes from stages V to VI were surgically removed from ovarian lobes of anesthetized X. laevis (Xenopus I, Dexter, Mich.). The removed oocytes were transferred to a Ca^2+-free oocyte ringer's (OR) culture medium (86 mM NaCl, 1.5 mM KCl, 2 mM MgCl2 and 10 mM HEPES, pH 7.6). The oocytes were cultured in Ca^2+-free OR medium containing 3 mg/ml collagenase (Worthington Biochemicals) for 1 hour and 30 minutes to 2 hours. This removed the follicular cell layer of the oocyte. Then, the oocytes were widely washed with Ca^2+-free OR culture medium and ND-96 medium (96 mM NaCl, 2 mM KCl, 1.8 mM CaCl2, 1 mM MgCl2, 5 mM HEPES, and 50 µg/ml gentamycin, pH 7.6). The washed oocytes were stored at 18° C. in ND-96 medium. Before oocyte was used, the oocyte was stabilized for at least one day. After the stabilization, approximately 50 ng of synthesized cRNA in 50 nl of nuclease-free water was injected into each oocyte for macroscopic current recording, and approximately 1 ng of synthesized cRNA in 50 nl of nuclease-free water was injected into each oocyte for single-channel recording using a micro-dispenser (Drummond Scientific, Broomall, Pa.). The cRNA-injected oocytes were cultured in ND-96 medium for 1 to 3 days at 18 degree C. Immediately prior to the patch-clamp experiment, the oocyte's vitelline membrane was manually removed with fine forceps. […]
A single BKCa channel was readily activated by a membrane potential simply transferred at 100 mV at a high concentration of intracellular Ca^2+. For the single-channel assay, the switching between the closed and open conditions was determined by setting a potency at a half of a unitary current amplitude. […] The macroscopic current of the expressed BKCa channel was activated by a voltage-clamp pulse delivered from a holding potential of −100 mV at 10 mV increment to a membrane potential of typically −80 to 200 mV, A dwell-time of recorded open and close events for the single BKCa channel was analyzed using a linear histogram method. […]

[3] = molecular target: T1, rat BKCa channel α-subunit (rSlo1); assay: Macroscopic current patch-clamp recording, Xenopus oocyte excised patches; type: cell-based
Description: as §3
Oocytes from stages V to VI were surgically removed from ovarian lobes of anesthetized X. laevis (Xenopus I, Dexter, Mich.). The removed oocytes were transferred to a Ca^2+-free oocyte ringer's (OR) culture medium (86 mM NaCl, 1.5 mM KCl, 2 mM MgCl2 and 10 mM HEPES, pH 7.6). The oocytes were cultured in Ca^2+-free OR medium containing 3 mg/ml collagenase (Worthington Biochemicals) for 1 hour and 30 minutes to 2 hours. This removed the follicular cell layer of the oocyte. Then, the oocytes were widely washed with Ca^2+-free OR culture medium and ND-96 medium (96 mM NaCl, 2 mM KCl, 1.8 mM CaCl2, 1 mM MgCl2, 5 mM HEPES, and 50 µg/ml gentamycin, pH 7.6). The washed oocytes were stored at 18° C. in ND-96 medium. Before oocyte was used, the oocyte was stabilized for at least one day. After the stabilization, approximately 50 ng of synthesized cRNA in 50 nl of nuclease-free water was injected into each oocyte for macroscopic current recording, and approximately 1 ng of synthesized cRNA in 50 nl of nuclease-free water was injected into each oocyte for single-channel recording using a micro-dispenser (Drummond Scientific, Broomall, Pa.). The cRNA-injected oocytes were cultured in ND-96 medium for 1 to 3 days at 18 degree C. Immediately prior to the patch-clamp experiment, the oocyte's vitelline membrane was manually removed with fine forceps.
[…] Patch pipettes were prepared from borosilicate and glass (WPI, Sarasota, Fla.). The pipettes were fire-polished with a resistance of 2 to 4 MΩ for patch recording. For single-channel recording, the patch pipettes were fire-polished with 4 to 8 MΩ resistors. To reduce electrical noise, the pipettes were coated with beeswax. Using an Axopatch 200B amplifier (Axon Instruments), the channel current was amplified. Then, the current was low-pass filtered at 1 kHz using a four-pole Bessel filter. Then, the current was digitized at a rate of 10 points/ms using a Digidata 1200A (Axon Instruments).
A single BKCa channel was readily activated by a membrane potential simply transferred at 100 mV at a high concentration of intracellular Ca^2+. For the single-channel assay, the switching between the closed and open conditions was determined by setting a potency at a half of a unitary current amplitude. To determine the single-channel conductance of the expressed channel, the average amplitude of the channel current was obtained from the histograms fitted with Gaussian distributions. An average current for a membrane-pass voltage is shown. A slope-conductance values were obtained from linear regression. The macroscopic current of the expressed BKCa channel was activated by a voltage-clamp pulse delivered from a holding potential of −100 mV at 10 mV increment to a membrane potential of typically −80 to 200 mV, A dwell-time of recorded open and close events for the single BKCa channel was analyzed using a linear histogram method. The dwell-time distribution was fitted into a single index using simplex-least-squares fitting methods (Clampfit, Axon Instruments). A peak in the dwell-time distribution was located at a time-constant of an exponential component.
To prevent activation of endogenous calcium-activated chloride channels, solutions for single and macroscopic channel recording contained gluconate as a non-permeant negative ion. […]

Wistar Kyoto rat (WKY) = assay: Voiding behavior of Wistar Kyoto rat (WKY); type: in vivo; settings: up to 5 mg/kg
Procedure: as §1, §2

[4] = 5 μM, outside-out, 3 μM intracellular Ca2+, double-exponential fit
[5] = after removal of 5 μM kurarinone, outside-out

Question: `C=C(C)[C@H](CC=C(C)C)Cc1c(O)cc(OC)c2c1O[C@H](c1ccc(O)cc1O)CC2=O` [kurarinone] was tested. Which “total voiding frequency for 3 hours” value ([1]; 5 mg/kg, vehicle 10.9±1.4) did it give?
Answer: 6.9±0.8

Question: What about the “effect on voiding frequency” value ([1]; 0.5 and 5 mg/kg) of the same compound?
Answer: reduced the voiding frequency for SHR in a dose-dependent manner

Question: What about the “half-activation voltage (V1/2) of single-channel open-probability” value ([2]; 10 μM intracellular Ca2+, control 68.7±3.7 mV) of the same compound?
Answer: 43.7±2.1 mV

Question: What about the single-channel conductance ([2]; 10 μM intracellular Ca2+, control 221.1±16.4) of the same compound?
Answer: 238.3±8.7 pS

Question: What about the “average opening-time of single channel” value ([2]; 50 mV, 2.98+/−0.34 ms in absence) of the same compound?
Answer: 5.77 ± 0.90 ms

Question: And the “average closing time of single channel” value ([2]; 50 mV, 3.69±0.80 ms in absence)?
Answer: 3.60 ± 4.1 ms

Question: What about the “activation time-constant (τactivation)” value ([3]; 0, 5, 10, 20 μM) of the same compound?
Answer: not significantly increased

Question: What about the effect on tail-current ([3]; 5 μM on the extracellular surface, outside-out patch, 3 μM intracellular Ca2+) of the same compound?
Answer: strongly potentiates the tail-current

Question: And the “association time-constant, fast phase (τfast) of potentiation” value [3, 4]?
Answer: 1.47 ± 0.34 s

Question: What about the “association time-constant, low-speed phase (τslow) of potentiation” value [3, 4] of the same compound?
Answer: 64.9 ± 8.8 s

Question: And the “maximum conductance relative to vehicle control” value ([3]; 20 μM)?
Answer: 1.8 times

Question: What about the “shift of V1/2 in the negative direction” value ([3]; 20 μM vs vehicle) of the same compound?
Answer: approximately 80 mV

Question: What about the “half-active voltage (V1/2) of G-V relationship” value ([3]; 20 μM, 3 μM [Ca2+]i, vehicle 107.4±2.2 mV) of the same compound?
Answer: 27.7±3.0 mV

Question: And the “maximum conductance (G/Gmax)” value ([3]; 20 μM, normalized to vehicle maximum)?
Answer: 1.35

Question: What about the “dissociation time-constant, fast phase of de-potentiation” value [3, 5] of the same compound?
Answer: 2.78 ± 0.95 s

Question: And the “dissociation time-constant, slow phase of de-potentiation” value [3, 5]?
Answer: 90.06 ± 12.21 s

Question: And the “change in BKCa channel current on treatment from the inside of the cell” value ([3]; excised inside-out patch recording)?
Answer: no significant change

Question: And the deactivation rate ([3]; increasing concentrations up to 20 μM, voltage-dependent)?
Answer: dramatically decreased

Question: And the “effect on voiding frequency” value (Wistar Kyoto rat (WKY))?
Answer: not affected
